From patent publication US20100234832A1, “METHOD FOR VASCULAR TREATMENT” (priority 2009, published 2010)

Test system: femoral nerve
Assay: Femoral nerve block with lidocaine injected under echographic/ultrasound control
Format: in vivo, human
Method: To accomplish femoral nerve block, an appropriate amount of local anesthetic is injected in the vicinity of femoral nerve close to the femoral artery under ultrasound control. After anesthesia takes effect, a needle is inserted through the skin into the vein to be treated and an optical fiber is introduced inside it. A typical procedure to carry out this task is to insert a guide wire inside the vein through needle's lumen, after the anesthesia has been introduced and takes effect. Once the guide wire is inserted, a dilator is used to slightly increase the size of the punction made onto the skin, in order to accomplish an easy catheter insertion. After catheter is inserted, guide wire is extracted and optical fiber is inserted through the catheter inside the vein and is advanced to the desired start position.
A main objective of this femoral block is to achieve sensory nerve function for blockage only, thus the least amount of lidocaine used yields the least probability for motor function to be affected. […] As a consequence, there is some minimal amount needed, which might differ by patient and procedure for an adequate and complete sensory block.
Lidocaine solutions much above 0.5% are thus not preferred, as the likelihood of concomitant loss of motor control along with the desired sensory blockage becomes too great, rendering patient recovery period longer. Concentration of other local anesthetics, with differing activity, would have a somewhat different effective range of preferred use.
A safe and effective femoral block procedure is achieved by sequentially carrying out the following steps: • 1. Attach monitors and if necessary give light sedation. • 2. Put patient in supine position with the operative leg slightly abducted. • 3. Prepare the groin. • 4. Place a transducer with the appropriate frequency range (10-12 MHz) along the inguinal crease. If the femoral artery and nerve are deep (>4 cm), use a 7 MHz transducer. • 5. Optimize machine imaging capability; select appropriate depth of e d (usually within 1-3 cm), focus range and gain. • 6. Identify the femoral artery. […]

CCN(CC)CC(=O)Nc1c(C)cccc1C [lidocaine]
anesthetic effect (sensory femoral nerve block) (0.1% lidocaine, femoral block): functioned well | motor function blockage (20 ml of 1% lidocaine, femoral block): also blocked motor function | femoral block (20 ml of lidocaine, concentration 0.1% to 0.5%, injected under echographic control): accomplish the femoral block
